The target of assay [1] is T1, Tyrosine-protein phosphatase non-receptor type 22 (Homo sapiens, UniProt Q9Y2R2). Description: SAR LYP1 Fluorescent Assay using OMFP substrate for In Vitro dose response studies - Set 3. [Related pubchem assays (depositor defined):AID1779, AID1784, AID2140, AID2686]. The class given is functional.
The target of assay [2] is T2, Tyrosine-protein phosphatase non-receptor type 7 (Homo sapiens, UniProt P35236). As to the kind of experiment: HePTP (PTPN7) phosphatase inhibitor potency, SAR follow-up, biochemical, set 2 (AID 449736). Type of assay: functional.
For assay [3], the target named is T3, Dual specificity protein phosphatase 3 (Homo sapiens, UniProt P51452). As to the kind of experiment: SAR VHR1 Fluorescent Assay for In Vitro dose response studies Set 2. [Related pubchem assays (depositor defined):AID1654, AID1661, AID1878]. Type of assay: functional.
Assay [4] addresses T1, Tyrosine-protein phosphatase non-receptor type 22. Description: LYP (PTPN22) phosphatase inhibitor potency, SAR follow-up, biochemical, pCAP fluorogenic substrate, fluorescence, set 3 (AID 449727). Type of assay: functional.
Assay [5] concerns the target T2, Tyrosine-protein phosphatase non-receptor type 7. Description: redox-dependent HePTP inhibition, mechanism study, biochemical, fluorescence (AID 2068). The class given is functional.
Assay [6] deals with Tyrosine-protein phosphatase non-receptor type 12 (Homo sapiens, UniProt Q05209). Description: SAR Selectivity Analysis of small molecule inhibitors of PEST using pCAP in a fluorescence assay. [Related pubchem assays (depositor defined):AID1779, AID1784, AID2135]. The class given is functional.
In assay [7] the target is Dual specificity protein phosphatase 6 (Rattus norvegicus, UniProt Q64346). The class given is functional.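 Note: confirmatory in vitro dose-response testing of MKP-3 inhibition; recombinant His-tagged MKP-3 made in E. coli BL21 with OMFP substrate.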
For assay [8], the target named is Intestinal-type alkaline phosphatase (Mus musculus, UniProt P24822). As to the kind of experiment: PubChem AID 488874. Type of assay: functional.
In assay [9] the target is T4, Intestinal-type alkaline phosphatase (Homo sapiens, UniProt P09923). Description: human IAP activators, dose response, biochemical, luminescent, uHTS hits, set 2 (AID 488817).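 Note: potency of activators that raise enzyme activity.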 The class given is functional.
The target of assay [10] is T4, Intestinal-type alkaline phosphatase. Description: human intestinal alkaline phosphatase activators, dose response, biochemical, luminescence, uHTS hits (AID 463120). Type of assay: functional.
In a further assay the target is T5, Caspase-6 (Homo sapiens, UniProt P55212).
T5 sequence (P55212 whole entry): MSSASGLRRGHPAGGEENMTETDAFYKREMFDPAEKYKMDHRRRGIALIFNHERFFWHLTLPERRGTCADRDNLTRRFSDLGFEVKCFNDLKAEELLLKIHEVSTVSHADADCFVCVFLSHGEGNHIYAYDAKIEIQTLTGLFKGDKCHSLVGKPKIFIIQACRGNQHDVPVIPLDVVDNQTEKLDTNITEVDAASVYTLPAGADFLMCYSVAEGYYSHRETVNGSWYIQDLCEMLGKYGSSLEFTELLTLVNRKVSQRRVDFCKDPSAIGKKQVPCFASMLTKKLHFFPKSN
As to the kind of experiment: human caspase-6 inhibitors, dose response, biochemical, VEID-R110 fluorescence, cherry-pick (AID 720632).

Assay [11] concerns the target T6, Alkaline phosphatase, tissue-nonspecific isozyme (Homo sapiens, UniProt P05186).
T6 sequence (P05186 whole entry): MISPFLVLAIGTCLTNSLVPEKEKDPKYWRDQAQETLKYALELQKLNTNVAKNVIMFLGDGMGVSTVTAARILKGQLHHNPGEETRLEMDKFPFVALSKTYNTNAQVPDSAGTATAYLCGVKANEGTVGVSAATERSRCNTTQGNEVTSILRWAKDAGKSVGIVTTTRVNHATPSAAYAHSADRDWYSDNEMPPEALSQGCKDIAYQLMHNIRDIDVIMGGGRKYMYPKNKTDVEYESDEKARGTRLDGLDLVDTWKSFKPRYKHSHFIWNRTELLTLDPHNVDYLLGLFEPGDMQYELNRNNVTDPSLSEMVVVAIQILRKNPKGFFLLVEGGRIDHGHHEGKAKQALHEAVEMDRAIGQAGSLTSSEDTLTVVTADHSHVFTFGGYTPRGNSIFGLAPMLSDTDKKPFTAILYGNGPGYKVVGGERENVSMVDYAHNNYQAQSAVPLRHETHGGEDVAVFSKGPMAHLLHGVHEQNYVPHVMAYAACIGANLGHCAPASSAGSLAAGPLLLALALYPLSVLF
Description: TNAP enzyme activators, dose response, selectivity assay for human IAP activator project, biochemical, TNAP isozyme, human IAP uHTS hits (AID 488886).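 Note: potency of compounds raising TNAP activity as a selectivity check on IAP activators.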 The class given is functional.

Assay [12] in a line: nonselective inhibitors of cellular cAMP signaling, dose response, counter-screen for MC4R biased antagonist project, cell-based, TR-FRET cAMP detection (AID 602305).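 Note: U2OS cells stimulated with forskolin near its EC80 as the cAMP inducer; potency is for inhibition of forskolin-stimulated cAMP signaling.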 The class given is functional. A general note: A counterscreen serves to expose hits that act by an unwanted route or on another target.
Assay [13] is described as follows: cytotoxicity in HEK-293T NF-kB-Luc cells, dose response, cytotoxicity control for B/T-cell NF-kB inhibitor project, cell-based, uHTS hits (AID 489019).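 Note: IC50 reflects cytotoxicity as loss of cell viability.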 Type of assay: functional.
Assay [14] is described as follows: cytotoxicity toward DRD oncogenic fibroblasts, dose response, cell-based, non-viral oncogenic, luminescence (AID 1934). The following applies: Homo sapiens. The class given is functional.
In assay [15] the test system is BJ. As to the kind of experiment: cytotoxicity toward BJ-TERT fibroblasts, dose response, cell-based, RAS-independent, luminescence (AID 1933). Type of assay: functional. The following applies: Homo sapiens.
Another assay concerns Jurkat. As to the kind of experiment: antigen receptor-induced NF-kB inhibitors, dose response, Jurkat, luciferase reporter, luminescence, B- and T-cell (AID 489004).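 Note: NF-kB luciferase reporter Jurkat cells stimulated with PMA plus ionomycin.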 The following applies: Homo sapiens. The class given is functional, cell-based.
Assay [16] can be described thus: HepG2 cell cytotoxicity, dose response, cytotoxicity control for Shn3 inhibitor project, CellTiter-Glo, cherry-picked (AID 624134). Type of assay: functional, cell-based. (In ATP-based viability assays light output follows the ATP content of the culture.)
Assay [17] in a line: control 3'UTR Renilla luciferase suppression, dose response, counter-screen for Shn3 inhibitor project, cell-based, Clone20-Shn3RL, cherry-picked (AID 624133). The class given is functional.
A short description of assay [18]: HEK293T cytotoxicity, dose response, cytotoxicity control for miR-122 modulator project, cell-based, inhibitor set, cherry-pick, set 2 (AID 720697). The class given is functional.
A further assay has as its target Melanocortin receptor 4 (Homo sapiens, UniProt P32245). Description: MC4R antagonist potency on cAMP, dose response, cell-based, TR-FRET, biased antagonists (AID 602298).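 Note: antagonist potency against agonist-stimulated cAMP production.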 Type of assay: functional. Background: TR-FRET usually uses a lanthanide donor and a delayed reading to cut background.
The subject of assay [19] is BJ. Description: cytotoxicity toward BJ-TERT-LT-ST fibroblasts, dose response, cell-based, RAS-independent, luminescence (AID 1935).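 Note: BJ fibroblasts immortalized with TERT plus LT and ST oncogenes.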 Type of assay: functional. The following applies: Homo sapiens.
A short description of assay [20]: Shn3 3'UTR reporter inhibitors, dose response, cell-based, Clone20 osteoblasts, firefly luciferase, cherry-picked (AID 624132).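 Note: firefly luciferase luminescence from reporter carrying the Shn3 3'UTR in osteoblasts.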 The class given is functional.
A short description of assay [21]: inhibitors of PGC1a acetylation in cells, dose response, cell-based, cherry-picked samples (AID 720514).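 Note: potency may reflect raised or lowered acetylation signal.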 Type of assay: functional.
A short description of assay [22]: miR-122 activators in hepatoma reporter cells, dose response, cell-based, Huh7 psiCHECK-miR122, Renilla luciferase, cherry-picked (AID 651956).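 Note: huh7 hepatoma cells stably carrying a psiCHECK-2 miR-122 sensor plasmid; renilla luciferase signal reporting endogenous miR-122 activity after 48 h compound exposure.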 Type of assay: functional.
In assay [23] the test system is A-375. Description: A375 melanoma cell viability reduction, dose response, counter-screen for MITF modulator project, cherry-pick samples, set 2 (AID 540335). The class given is functional, cell-based. The following applies: Homo sapiens.
Assay [24] in a line: HEK293T cytotoxicity, dose response, cytotoxicity control for miR-122 modulator project, cell-based, activator set, cherry-pick (AID 720690).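 Note: HEK293T human cells scored for general mammalian cytotoxicity.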 The class given is functional.
Assay [25] deals with BJ. As to the kind of experiment: cells. The class given is functional, cell-based. The following applies: Homo sapiens.
The target in assay [26] is T7, Microphthalmia-associated transcription factor (Homo sapiens, UniProt O75030).
T7 sequence (O75030 whole entry): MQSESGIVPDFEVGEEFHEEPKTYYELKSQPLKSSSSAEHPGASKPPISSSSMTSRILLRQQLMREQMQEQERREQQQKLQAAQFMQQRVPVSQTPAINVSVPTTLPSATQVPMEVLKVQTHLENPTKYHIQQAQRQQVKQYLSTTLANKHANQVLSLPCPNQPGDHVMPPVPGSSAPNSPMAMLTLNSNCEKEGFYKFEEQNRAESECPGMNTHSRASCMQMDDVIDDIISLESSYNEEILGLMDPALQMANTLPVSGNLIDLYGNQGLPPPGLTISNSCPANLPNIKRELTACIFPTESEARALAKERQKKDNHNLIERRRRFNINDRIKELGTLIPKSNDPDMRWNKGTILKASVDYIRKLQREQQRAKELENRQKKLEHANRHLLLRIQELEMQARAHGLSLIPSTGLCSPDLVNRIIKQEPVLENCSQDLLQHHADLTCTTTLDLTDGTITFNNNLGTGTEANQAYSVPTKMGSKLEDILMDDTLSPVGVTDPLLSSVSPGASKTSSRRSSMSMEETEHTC
Description: TRPM1 promoter luciferase signal decrease, dose response, MITF inhibitor project, cell-based, SK-MEL-5, cherry-picked, set 3 (AID 493073).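 Note: SK-MEL-5 melanoma cells with luciferase driven by the MITF target TRPM1 promoter.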 Type of assay: functional.

The next assay concerns the target Phospholipase D2 (Homo sapiens, UniProt O14939). Description: PLD2 inhibitor potency in cells, dose response (AID 602147).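 Note: cellular assay in HEK293 cells overexpressing GFP-tagged PLD2.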 Type of assay: functional.
Assay [27] is described as follows: inhibitors of SNCA 5'UTR-driven reporter translation, confirmation, H4 neuroglioma cells, luminescence (AID 1988). Type of assay: functional, cell-based.
A short description of assay [28]: Luminescence Cell-Based Dose Response HTS to Identify Inhibitors of 5'UTR Stem-Loop Driven Prion Protein mRNA Translation in H4 Neuroglioblastoma Cells. [Related pubchem assays: 1827 (Project Summary), 1813 (Primary HTS)]. Type of assay: functional.
The test system of assay [29] is A-375. As to the kind of experiment: MITF: Counter assay: A375 proliferation Measured in Cell-Based System Using Plate Reader - 2084-03_Inhibitor_Dose_DryPowder_Activity. [Related pubchem assays (depositor defined):AID488944]. The class given is functional. The following applies: Homo sapiens.
Assay [30] is described as follows: inhibitors of firefly luciferase expression or activity, dose response, H4 neuroglioma cells, luminescence (AID 1990). Type of assay: functional, cell-based.
The target of assay [31] is T3, Dual specificity protein phosphatase 3. As to the kind of experiment: SAR VHR1 Fluorescent Assay for In Vitro dose response studies Set 3. [Related pubchem assays (depositor defined):AID1654, AID1661, AID1878]. Type of assay: functional.

Data on six compounds can be found in ChEMBL document CHEMBL1201862, “PubChem BioAssay data set” (2004).

Calls of active or inactive are those of the source. Bounds are passed on as bounds.

T2 sequence (P35236 whole entry): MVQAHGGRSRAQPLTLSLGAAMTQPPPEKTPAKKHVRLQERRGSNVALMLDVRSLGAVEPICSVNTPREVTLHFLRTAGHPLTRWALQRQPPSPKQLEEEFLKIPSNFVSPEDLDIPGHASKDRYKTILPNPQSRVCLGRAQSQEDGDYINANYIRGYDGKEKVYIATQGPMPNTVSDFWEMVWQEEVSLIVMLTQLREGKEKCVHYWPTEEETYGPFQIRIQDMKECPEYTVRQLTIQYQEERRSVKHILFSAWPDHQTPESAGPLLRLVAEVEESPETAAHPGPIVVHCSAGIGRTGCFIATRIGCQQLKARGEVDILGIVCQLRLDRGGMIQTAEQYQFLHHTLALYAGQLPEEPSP
T4 sequence (P09923 whole entry): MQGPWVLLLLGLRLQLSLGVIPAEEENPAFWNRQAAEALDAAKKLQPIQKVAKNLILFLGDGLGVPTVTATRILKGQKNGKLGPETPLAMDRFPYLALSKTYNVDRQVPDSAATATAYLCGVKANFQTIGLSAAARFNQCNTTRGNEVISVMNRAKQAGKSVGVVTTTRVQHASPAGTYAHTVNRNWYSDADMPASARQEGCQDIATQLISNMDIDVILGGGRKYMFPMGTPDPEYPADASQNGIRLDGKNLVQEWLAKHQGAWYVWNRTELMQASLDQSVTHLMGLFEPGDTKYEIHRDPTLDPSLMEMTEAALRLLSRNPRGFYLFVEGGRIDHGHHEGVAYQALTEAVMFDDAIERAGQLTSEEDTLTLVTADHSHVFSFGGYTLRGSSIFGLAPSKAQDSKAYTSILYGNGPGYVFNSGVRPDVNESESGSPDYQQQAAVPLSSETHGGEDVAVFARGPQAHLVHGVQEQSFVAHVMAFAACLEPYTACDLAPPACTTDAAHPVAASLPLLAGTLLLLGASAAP
T3 sequence (P51452 whole entry): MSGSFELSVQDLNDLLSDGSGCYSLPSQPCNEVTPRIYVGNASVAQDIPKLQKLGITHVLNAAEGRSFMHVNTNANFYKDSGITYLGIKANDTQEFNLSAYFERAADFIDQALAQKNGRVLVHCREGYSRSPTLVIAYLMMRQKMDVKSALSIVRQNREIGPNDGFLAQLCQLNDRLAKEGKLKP
T1 sequence (Q9Y2R2 whole entry): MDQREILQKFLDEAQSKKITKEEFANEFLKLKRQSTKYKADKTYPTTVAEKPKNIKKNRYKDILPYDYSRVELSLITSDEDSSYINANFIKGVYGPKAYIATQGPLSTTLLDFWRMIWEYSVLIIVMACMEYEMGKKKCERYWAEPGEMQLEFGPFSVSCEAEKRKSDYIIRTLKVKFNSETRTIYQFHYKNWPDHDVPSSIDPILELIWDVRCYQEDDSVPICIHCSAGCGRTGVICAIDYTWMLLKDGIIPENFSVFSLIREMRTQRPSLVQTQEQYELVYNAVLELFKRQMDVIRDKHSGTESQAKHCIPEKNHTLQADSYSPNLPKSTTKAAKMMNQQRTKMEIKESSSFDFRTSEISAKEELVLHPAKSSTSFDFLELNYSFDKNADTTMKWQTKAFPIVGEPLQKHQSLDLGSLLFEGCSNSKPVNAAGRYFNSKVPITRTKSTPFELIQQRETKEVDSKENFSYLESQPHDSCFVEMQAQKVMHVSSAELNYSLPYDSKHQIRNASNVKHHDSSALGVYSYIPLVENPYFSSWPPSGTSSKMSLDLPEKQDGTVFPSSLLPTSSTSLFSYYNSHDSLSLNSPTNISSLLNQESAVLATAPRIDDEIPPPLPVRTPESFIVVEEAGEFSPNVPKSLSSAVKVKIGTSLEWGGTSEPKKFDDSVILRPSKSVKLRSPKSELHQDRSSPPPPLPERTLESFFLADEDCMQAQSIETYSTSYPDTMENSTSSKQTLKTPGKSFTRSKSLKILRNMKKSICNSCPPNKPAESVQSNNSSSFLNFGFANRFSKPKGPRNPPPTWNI
Sequence of Dual specificity protein phosphatase 6 (Q64346 whole entry): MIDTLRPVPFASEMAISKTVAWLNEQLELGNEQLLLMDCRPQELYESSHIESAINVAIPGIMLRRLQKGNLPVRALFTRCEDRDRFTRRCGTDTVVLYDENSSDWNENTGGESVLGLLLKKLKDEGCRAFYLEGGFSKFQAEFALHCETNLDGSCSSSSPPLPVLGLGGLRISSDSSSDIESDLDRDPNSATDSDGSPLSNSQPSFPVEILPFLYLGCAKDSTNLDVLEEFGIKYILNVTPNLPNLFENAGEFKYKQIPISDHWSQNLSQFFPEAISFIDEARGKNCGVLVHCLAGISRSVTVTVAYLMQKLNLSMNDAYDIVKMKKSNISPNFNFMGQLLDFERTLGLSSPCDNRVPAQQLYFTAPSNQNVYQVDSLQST
Sequence of Tyrosine-protein phosphatase non-receptor type 12 (Q05209 whole entry): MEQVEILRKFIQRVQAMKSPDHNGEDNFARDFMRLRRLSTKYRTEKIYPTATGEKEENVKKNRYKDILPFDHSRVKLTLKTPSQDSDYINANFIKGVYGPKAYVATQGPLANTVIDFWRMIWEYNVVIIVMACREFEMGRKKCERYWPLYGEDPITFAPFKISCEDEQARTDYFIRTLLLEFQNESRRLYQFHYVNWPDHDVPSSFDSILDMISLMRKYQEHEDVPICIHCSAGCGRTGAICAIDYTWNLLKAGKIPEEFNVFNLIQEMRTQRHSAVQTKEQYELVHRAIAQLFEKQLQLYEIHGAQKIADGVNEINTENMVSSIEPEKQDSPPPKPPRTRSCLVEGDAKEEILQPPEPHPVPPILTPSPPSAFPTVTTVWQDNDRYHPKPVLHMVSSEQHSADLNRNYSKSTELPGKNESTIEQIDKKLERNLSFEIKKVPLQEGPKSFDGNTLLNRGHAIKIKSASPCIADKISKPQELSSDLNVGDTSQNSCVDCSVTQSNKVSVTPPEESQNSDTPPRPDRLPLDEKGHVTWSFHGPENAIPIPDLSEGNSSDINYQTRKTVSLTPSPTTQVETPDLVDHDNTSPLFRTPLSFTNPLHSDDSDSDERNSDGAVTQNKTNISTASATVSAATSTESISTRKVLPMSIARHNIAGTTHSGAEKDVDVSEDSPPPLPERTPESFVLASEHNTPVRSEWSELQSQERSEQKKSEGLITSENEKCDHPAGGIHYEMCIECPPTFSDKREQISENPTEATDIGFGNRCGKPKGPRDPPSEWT
Sequence of Melanocortin receptor 4 (P32245 whole entry): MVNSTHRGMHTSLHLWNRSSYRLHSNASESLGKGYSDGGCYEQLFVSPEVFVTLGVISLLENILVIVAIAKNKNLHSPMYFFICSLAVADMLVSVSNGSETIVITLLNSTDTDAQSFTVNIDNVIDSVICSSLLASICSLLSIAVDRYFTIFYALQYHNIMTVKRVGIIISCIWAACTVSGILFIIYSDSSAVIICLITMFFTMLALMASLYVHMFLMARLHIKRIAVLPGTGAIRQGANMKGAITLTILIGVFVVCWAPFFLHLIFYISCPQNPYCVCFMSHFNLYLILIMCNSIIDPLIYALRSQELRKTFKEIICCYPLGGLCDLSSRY
Sequence of Phospholipase D2 (O14939 whole entry): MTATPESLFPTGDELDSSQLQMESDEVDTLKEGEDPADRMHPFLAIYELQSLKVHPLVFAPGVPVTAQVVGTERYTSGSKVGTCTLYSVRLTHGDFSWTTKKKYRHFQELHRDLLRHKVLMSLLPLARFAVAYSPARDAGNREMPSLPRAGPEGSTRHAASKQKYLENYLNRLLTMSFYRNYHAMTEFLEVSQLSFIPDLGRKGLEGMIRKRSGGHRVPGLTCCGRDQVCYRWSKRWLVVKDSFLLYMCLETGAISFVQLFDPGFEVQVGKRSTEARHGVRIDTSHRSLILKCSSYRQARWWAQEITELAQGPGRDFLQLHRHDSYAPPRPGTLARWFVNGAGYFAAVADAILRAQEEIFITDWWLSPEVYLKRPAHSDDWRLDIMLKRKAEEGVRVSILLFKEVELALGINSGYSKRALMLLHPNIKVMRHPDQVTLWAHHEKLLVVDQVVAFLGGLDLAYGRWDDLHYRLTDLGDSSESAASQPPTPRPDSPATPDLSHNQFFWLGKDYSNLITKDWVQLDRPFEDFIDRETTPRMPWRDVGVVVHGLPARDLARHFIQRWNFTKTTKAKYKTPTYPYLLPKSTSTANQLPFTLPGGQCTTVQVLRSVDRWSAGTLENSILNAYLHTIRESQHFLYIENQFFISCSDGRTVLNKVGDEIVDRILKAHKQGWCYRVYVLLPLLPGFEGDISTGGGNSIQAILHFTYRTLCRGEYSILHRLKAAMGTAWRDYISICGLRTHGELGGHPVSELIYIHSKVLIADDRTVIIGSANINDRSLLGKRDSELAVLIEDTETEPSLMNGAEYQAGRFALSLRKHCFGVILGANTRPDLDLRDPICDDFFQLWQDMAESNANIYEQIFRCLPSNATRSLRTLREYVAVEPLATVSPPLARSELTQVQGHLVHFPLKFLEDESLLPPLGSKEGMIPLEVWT
Sequence of Intestinal-type alkaline phosphatase (Mus musculus, UniProt P24822) (P24822 whole entry): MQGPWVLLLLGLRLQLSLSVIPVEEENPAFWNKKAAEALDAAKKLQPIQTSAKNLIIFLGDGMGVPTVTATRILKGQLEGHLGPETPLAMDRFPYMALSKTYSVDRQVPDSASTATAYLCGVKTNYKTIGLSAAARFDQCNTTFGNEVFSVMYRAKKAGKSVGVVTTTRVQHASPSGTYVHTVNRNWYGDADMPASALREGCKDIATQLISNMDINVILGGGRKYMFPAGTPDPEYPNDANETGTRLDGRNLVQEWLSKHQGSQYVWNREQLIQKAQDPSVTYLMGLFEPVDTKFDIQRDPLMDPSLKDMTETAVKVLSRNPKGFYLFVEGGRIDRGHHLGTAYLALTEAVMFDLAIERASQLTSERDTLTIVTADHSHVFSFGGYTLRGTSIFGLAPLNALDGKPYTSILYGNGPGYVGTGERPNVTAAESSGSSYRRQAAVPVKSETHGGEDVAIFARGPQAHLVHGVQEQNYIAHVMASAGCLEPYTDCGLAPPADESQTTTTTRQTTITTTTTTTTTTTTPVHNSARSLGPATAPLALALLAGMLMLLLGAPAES

By IC50 is commonly meant the concentration that inhibits the measured activity by half. As for `CCOC(=O)COc1c(Cl)cc(/C=C2/S/C(=N/c3ccc(F)cc3)NC2=O)cc1OCC`, the IC50 in [1] is 74.8 µM (active); in assay [2], 1.4 µM (active); in [3], > 100 µM (inactive); in assay [4], 54.2 µM (active); in assay [5], 10.5 µM (active); in assay [6], 9.35 µM (active). Moreover, in assay [7], the IC50 was 66.4 µM (active).

What is called EC50 is the concentration needed to bring the measured effect to its halfway point. The AC50 is the midpoint of the concentration-response curve, whichever way the signal moves. Consider `Cc1cccc(OCC(=O)NNC(=O)c2ccc3[nH]cnc3c2)c1`, for which the IC50 in assay [8] was > 100 µM (inactive). The values for the EC50 in assay [9], in assay [10] and in assay [11] were 13.5 µM (active), 9.75 µM (active) and 17.7 µM (active), respectively. The AC50 at Caspase-6 was 44 µM (active).

Turning to `C#CC(=O)N(c1ccc(OC)c(OC)c1)C(C(=O)NC1CCCC1)c1cccs1` (configuration not stated), the IC50 in assay [12] was > 64.6 µM (inactive); in [13], 73 µM (inactive); with Jurkat, 260 nM (active); on Melanocortin receptor 4, 2.51 µM (active). Moreover, the EC50 in [14] is 3.54 µM (active); with BJ [15], 171 nM (inconclusive); with BJ [19], 7.04 µM (active); in the assay with BJ [25] it was 5.23 µM (inconclusive). Moreover, the AC50 in [16] is 2.4 µM (active); in [17], 14.3 µM (active); in assay [18], < 195 nM (active); in assay [20] it was 3.32 µM (active); in assay [21], 3.18 µM (active); in [22] it was 651 nM (active). In addition, the AC50 is 5.92 µM (active) with A-375 [23], < 195 nM (active) in [24] and 3.31 µM (active) in assay [26].

Turning to `Cc1cccc(C(=O)N[C@@H](C)CN2CCC3(CC2)C(=O)NCN3c2ccccc2)c1`, the IC50 at Phospholipase D2 is 20 µM (active).

For `O=C(O)c1ccccc1C(=O)Nc1ccc(Oc2cccc3ccccc23)cc1`, the EC50 is 10.4 µM (active) in assay [27], 12.7 µM (active) in assay [28] and 6.38 µM (active) in assay [30]. Besides, the values for the AC50 (in the assay with A-375 [29]; in the assay on A-375 [23]; in assay [26]) were > 35 µM (active), > 35 µM (active) and 18.8 µM (active), respectively.

`Cc1cc(NC(=O)c2ccccc2Cl)ccc1NC(=O)CSc1nnc(-c2cccs2)n1C`: in assay [31], the IC50 was 25.3 µM (active).
